Tests used:
[1] = biological target: T1, human erythrocyte calpain 1 (Homo sapiens, UniProt P07384); test: Calpain-Glo Protease Assay; type: biochemical; settings: 5 mM CaCl2, 10 min, room temperature; mean of two experiments
T1 construct: human erythrocyte calpain 1 (MilliporeSigma); purchased MilliporeSigma; host or cells: human erythrocytes
T1 sequence (P07384 1-714): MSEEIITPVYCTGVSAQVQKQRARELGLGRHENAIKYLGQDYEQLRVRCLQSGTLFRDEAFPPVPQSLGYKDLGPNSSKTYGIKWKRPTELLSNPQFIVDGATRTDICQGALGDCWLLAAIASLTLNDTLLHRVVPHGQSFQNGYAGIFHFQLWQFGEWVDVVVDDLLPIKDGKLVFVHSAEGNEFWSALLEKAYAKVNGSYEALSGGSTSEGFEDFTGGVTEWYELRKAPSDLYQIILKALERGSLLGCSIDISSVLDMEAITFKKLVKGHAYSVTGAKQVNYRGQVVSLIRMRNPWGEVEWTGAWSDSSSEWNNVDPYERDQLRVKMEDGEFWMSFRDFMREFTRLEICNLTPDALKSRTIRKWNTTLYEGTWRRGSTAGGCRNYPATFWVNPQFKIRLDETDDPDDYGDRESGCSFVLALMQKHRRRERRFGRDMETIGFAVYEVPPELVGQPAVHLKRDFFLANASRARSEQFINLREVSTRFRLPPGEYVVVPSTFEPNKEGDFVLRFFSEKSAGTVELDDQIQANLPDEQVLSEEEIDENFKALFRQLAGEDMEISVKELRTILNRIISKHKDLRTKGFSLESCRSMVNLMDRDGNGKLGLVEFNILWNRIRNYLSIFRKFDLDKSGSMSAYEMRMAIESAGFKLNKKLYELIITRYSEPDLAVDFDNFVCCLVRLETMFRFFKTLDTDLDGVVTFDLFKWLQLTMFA
T1 sequence (P04632 1-268 partner): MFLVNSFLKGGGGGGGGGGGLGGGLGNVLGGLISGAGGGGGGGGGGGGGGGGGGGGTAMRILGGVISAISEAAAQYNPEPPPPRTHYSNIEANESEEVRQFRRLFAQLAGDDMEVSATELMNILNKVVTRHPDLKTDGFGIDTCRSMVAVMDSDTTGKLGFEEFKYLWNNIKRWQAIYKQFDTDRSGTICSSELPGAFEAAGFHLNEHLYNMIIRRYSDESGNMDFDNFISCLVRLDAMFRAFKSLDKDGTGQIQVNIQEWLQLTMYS
Procedure: (§1) For measurement of inhibitory activities against calpains in vitro, Calpain-Glo Protease Assay (Promega; Madison, WI, USA) was performed using human erythrocyte calpain 1 (MilliporeSigma) and purified porcine calpain 2. Briefly, 24 µL of each calpain diluted with 20 mM Tris-HCl (pH 7.4), 1 µL of each inhibitor, and 25 µL of reaction buffer including CaCl2 in a 96-well plate was incubated for 10 min at room temperature. The final concentration of CaCl2 in the reaction solution was 5 mM. The luminescence was measured using a microplate reader (GloMax Discover System; Promega). IC50 values from two independent experiments were averaged.

[2] = system: purified porcine calpain 2; test: Calpain-Glo Protease Assay; type: biochemical; settings: 5 mM CaCl2, 10 min, room temperature; mean of two experiments
Source text: The porcine kidney was obtained from DART Co., Ltd. as part of a program aimed at the effective utilization of livestock by-products in Hokkaido, Japan. The procurement process followed ethical guidelines from Livestock Industry Bureau MAFF-J (ministry of agriculture, forestry and fisheries of Japan) for farm animal use, ensuring compliance with relevant regulations. Two porcine kidneys were rapidly frozen after removal, trimmed free of excess tissue or renal pelvis, and cut into small pieces (approximately 2 × 2 cm) before they thawed. About 250 g of these pieces were homogenized in 1200 mL of ice-cold 20 mM Tris-HCl (pH 8.0) with 5 mM ethylenediaminetetraacetic acid (EDTA), 0.1% 2-mercaptoethanol (2-ME), 0.1 mg/mL Pefabloc SC (MilliporeSigma, Burlington, MA, USA), 40 µg/mL bestatin, and 4 µg/mL pepstatin in a Waring blender HGBSS (Waring; Stamford, CT, USA) at 19,000 rpm using several bursts of 10 sec each with 20 sec cooling periods between each burst. The homogenate was centrifuged at 25,000 × g for 15 min at 4°C, and the supernatant was filtered through glass wool and a 5 µm filter (Merck) to remove floating lipids. The purification procedure was performed according to the method of Thompson and Goll with some minor modifications: the DEAE-cellulose and the DEAE-TSK ToyoPearl 650S columns were substituted with DEAE sepharose fast flow (Merck) and TSKgel DEAE-5PW (30) (Tosoh; Tokyo, Japan) columns, respectively. After purification, calpain-2 was dialyzed, and glycerol was added for freeze-thaw protection. The final buffer formulation was 20 mM imidazole, 5 mM 2-ME, 1 mM EDTA, 1 mM EGTA, and 20% glycerol.
as §1

IC50 [1] | IC50 Porcine Calpain 2 [2] | SMILES | IC50 [2]
15.9 µM | No effect | CC(C)(F)C[C@H](N[C@@H](c1ccc(-c2ccc(S(C)(=O)=O)cc2)cc1)C(F)(F)F)C(=O)NC1(C#N)CC1 [Odanacatib] | –
81 µM | – | CCc1ccccc1NC(=O)CSC(=O)NNC(=O)[C@H](Cc1c[nH]c2ccccc12)NC(=O)OC(C)(C)C [SID26681509] | 93.2 µM

SMILES | IC50 [1] | IC50 Porcine Calpain 2 [2] | IC50 [2]
COCCOCCOC(=O)N[C@@H](CC(C)C)C(=O)N[C@@H](Cc1ccccc1)C(=O)C(=O)NC1CC1 [SNJ-1945] | 0.077 µM | – | 0.072 µM
